Measurements published in ChEMBL document CHEMBL1132075, “Enantio- and diastereocontrolled dopamine D1, D2, D3 and D4 receptor binding of N-(3-pyrrolidinylmethyl)benzamides synthesized from aspartic acid” (Bioorg Med Chem Lett, 1999).

Assays:
D(2) dopamine receptor [1] = target: T1, D(2) dopamine receptor (Homo sapiens, UniProt P14416); experiment: Binding affinity towards human Dopamine receptor D2 (long) by [3H]-spiperone displacement.
D(1A) dopamine receptor = D(1A) dopamine receptor (Bos taurus, UniProt Q95136); experiment: Binding affinity towards bovine dopamine D1 receptor by [3H]-SCH- 23390 displacement.
D(1A) dopamine receptor, sequence (Q95136 whole entry): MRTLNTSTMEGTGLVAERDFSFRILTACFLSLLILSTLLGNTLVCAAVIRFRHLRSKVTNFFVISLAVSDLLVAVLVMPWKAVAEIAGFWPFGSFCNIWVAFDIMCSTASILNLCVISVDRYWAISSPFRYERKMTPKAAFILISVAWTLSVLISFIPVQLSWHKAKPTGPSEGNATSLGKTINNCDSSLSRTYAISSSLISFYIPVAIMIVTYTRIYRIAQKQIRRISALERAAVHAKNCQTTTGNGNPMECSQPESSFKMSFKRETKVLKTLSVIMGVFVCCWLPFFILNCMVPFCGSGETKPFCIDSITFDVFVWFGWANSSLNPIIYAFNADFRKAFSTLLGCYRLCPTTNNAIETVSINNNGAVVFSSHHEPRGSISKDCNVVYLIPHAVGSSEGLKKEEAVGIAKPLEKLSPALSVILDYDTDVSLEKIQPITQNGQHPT

D(3) dopamine receptor = D(3) dopamine receptor (Homo sapiens, UniProt P35462); experiment: Binding affinity towards human dopamine D3 receptor by [3H]spiperone displacement.
D(3) dopamine receptor, sequence (P35462 whole entry): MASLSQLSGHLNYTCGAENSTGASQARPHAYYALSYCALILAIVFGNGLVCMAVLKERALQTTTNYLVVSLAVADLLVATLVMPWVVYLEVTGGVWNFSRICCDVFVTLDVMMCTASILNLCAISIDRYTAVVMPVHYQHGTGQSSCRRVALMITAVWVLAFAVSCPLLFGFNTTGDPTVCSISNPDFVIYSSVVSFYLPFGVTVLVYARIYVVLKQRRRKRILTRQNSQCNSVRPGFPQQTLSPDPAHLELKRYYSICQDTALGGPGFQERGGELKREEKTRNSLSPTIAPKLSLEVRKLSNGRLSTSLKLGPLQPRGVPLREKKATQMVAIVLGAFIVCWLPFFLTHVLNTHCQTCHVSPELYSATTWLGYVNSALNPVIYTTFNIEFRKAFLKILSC

D(4) dopamine receptor = target: T2, D(4) dopamine receptor (Homo sapiens, UniProt P21917); experiment: Binding affinity towards human Dopamine receptor D4 by [3H]spiperone displacement.
T2 sequence (P21917 whole entry): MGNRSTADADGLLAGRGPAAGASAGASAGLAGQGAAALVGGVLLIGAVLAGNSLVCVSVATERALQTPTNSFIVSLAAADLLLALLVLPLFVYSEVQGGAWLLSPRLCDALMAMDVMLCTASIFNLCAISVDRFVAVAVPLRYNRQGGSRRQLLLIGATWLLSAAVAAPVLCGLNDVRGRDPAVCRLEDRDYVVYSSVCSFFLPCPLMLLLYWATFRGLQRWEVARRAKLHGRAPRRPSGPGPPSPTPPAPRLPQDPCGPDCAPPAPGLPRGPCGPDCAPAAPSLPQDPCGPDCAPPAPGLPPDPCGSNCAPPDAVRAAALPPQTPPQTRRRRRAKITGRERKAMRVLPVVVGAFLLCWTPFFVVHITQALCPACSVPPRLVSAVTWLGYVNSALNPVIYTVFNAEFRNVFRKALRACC

D(2) dopamine receptor [2] = target: T1, D(2) dopamine receptor; experiment: Binding affinity towards human Dopamine receptor D2 (short) by [3H]-spiperone displacement.

T1 sequence (P14416 whole entry): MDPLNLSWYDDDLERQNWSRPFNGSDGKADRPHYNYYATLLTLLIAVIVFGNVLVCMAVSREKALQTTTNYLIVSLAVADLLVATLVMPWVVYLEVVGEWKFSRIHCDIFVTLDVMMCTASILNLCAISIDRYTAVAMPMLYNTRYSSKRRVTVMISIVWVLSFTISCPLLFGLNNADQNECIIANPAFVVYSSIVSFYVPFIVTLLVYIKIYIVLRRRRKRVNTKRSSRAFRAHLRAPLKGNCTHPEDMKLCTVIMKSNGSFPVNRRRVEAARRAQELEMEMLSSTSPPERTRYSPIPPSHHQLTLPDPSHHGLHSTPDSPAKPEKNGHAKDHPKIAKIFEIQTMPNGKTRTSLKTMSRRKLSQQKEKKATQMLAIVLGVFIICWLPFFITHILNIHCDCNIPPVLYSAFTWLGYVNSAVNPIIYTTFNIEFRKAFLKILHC

Row | Ki (D(2) dopamine receptor [1]) [nM] | Ki (D(1A) dopamine receptor) [nM] | Ki (D(3) dopamine receptor) [nM] | Ki (D(4) dopamine receptor) [nM] | Ki (D(2) dopamine receptor [2]) [nM] | Compound
1 | 3100 | 3700 | 1100 | 48 | 1600 | COc1ccc(Br)cc1C(=O)NC[C@@H]1CCN(Cc2ccccc2)C1
2 | 2000 | 5200 | 2100 | 46 | 1500 | COc1ccc(Br)cc1C(=O)NC[C@H]1CCN(Cc2ccccc2)C1
3 | 980 | 4100 | 350 | 990 | 540 | CCC[C@H]1CN(Cc2ccccc2)C[C@@H]1CNC(=O)c1cc(Cl)c(NC)cc1OC
4 | 1400 | 11000 | 570 | 180 | 640 | COc1cc(N)c(Cl)cc1C(=O)NC[C@@H]1CCN(Cc2ccccc2)C1
5 | 54 | 3300 | 270 | 130 | 24 | CCC[C@@H]1CN(Cc2ccccc2)C[C@H]1CNC(=O)c1cc(Cl)c(NC)cc1OC
6 | 51 | 12000 | 570 | 240 | 21 | CNc1cc(OC)c(C(=O)NC[C@@H]2CN(Cc3ccccc3)C[C@@H]2C)cc1Cl
7 | 330 | 20000 | 320 | 150 | 120 | CNc1cc(OC)c(C(=O)NC[C@H]2CN(Cc3ccccc3)C[C@@H]2C)cc1Cl
8 | 45 | 240 | 310 | 46 | 28 | CCC[C@H]1CN(Cc2ccccc2)C[C@H]1CNC(=O)c1cc(Cl)c(NC)cc1OC
9 | 38000 | 87000 | 11000 | 7000 | 28000 | COc1cc(N(C)C(C)=O)c(Cl)cc1C(=O)NC[C@H]1CCN(Cc2ccccc2)C1
10 | 19000 | 35000 | 2700 | 250 | 21000 | COc1cc(NC(C)=O)c(Cl)cc1C(=O)NC[C@@H]1CCN(Cc2ccccc2)C1
11 | 110 | 5100 | 47 | 19 | 58 | CNc1cc(OC)c(C(=O)NC[C@@H]2CCN(Cc3ccccc3)C2)cc1Cl
12 | 27000 | 41000 | 8700 | 340 | 25000 | COc1cc(NC(C)=O)c(Cl)cc1C(=O)NC[C@H]1CCN(Cc2ccccc2)C1
13 | 110 | 9700 | 360 | 23 | 86 | CNc1cc(OC)c(C(=O)NC[C@H]2CCN(Cc3ccccc3)C2)cc1Cl
14 | 190 | 2800 | 31 | 200 | 190 | CCC[C@@H]1CN(Cc2ccccc2)C[C@@H]1CNC(=O)c1cc(Cl)c(NC)cc1OC
15 | 150 | 11000 | 110 | 47 | 79 | CNc1cc(OC)c(C(=O)NC[C@H]2CN(Cc3ccccc3)C[C@H]2C)cc1Cl
16 | 28 | 14000 | 210 | 220 | 10 | CNc1cc(OC)c(C(=O)NC[C@@H]2CN(Cc3ccccc3)C[C@H]2C)cc1Cl
17 | 820 | 11000 | 2200 | 140 | 540 | COc1cc(N)c(Cl)cc1C(=O)NC[C@H]1CCN(Cc2ccccc2)C1
18 | 30000 | 75000 | 7200 | 4200 | 19000 | COc1cc(N(C)C(C)=O)c(Cl)cc1C(=O)NC[C@@H]1CCN(Cc2ccccc2)C1
19 | – | 50000 | – | – | – | CCN1CCC[C@H]1CNC(=O)c1cc(S(N)(=O)=O)ccc1OC [LEVOSULPIRIDE]
